Test results reported in patent publication US6218112A, “Optimization of gene delivery and gene delivery system” (Cobra Therapeutics Limited, priority 1997, dated 2001).
Like-named read-outs stand apart in the source and are kept apart here. * marks the point of attachment. Acm = CC(=O)NC*

Assays:
Jurkat cell line = assay: In vitro transfection with pRSVLuc (luciferase) condensed on peptides; format: cell-based; details: peptide 2 μg/μg plasmid DNA, luciferase after 24 h, FIG. 7
Protocol: After incubation the cells are lysed and are assayed for gene expression. In the case of the luciferase reporter gene, luciferin and ATP are added to lysed cells and the light emitted is measured with a luminometer (see deWet et al., supra).
Cell lines such as Jurkat and K562 grow in suspension and can be transfected and the level of transgene expression (luciferase activity) determined b) the following method. Cells are harvested on the day of assay by centrifugation at 1200 rpm for 5 mins at room temperature. The cell pellet is resuspended in phosphate buffered saline and re-centrifuged. This operation is performed twice. […] The cells are then aliquoted into tubes and 0.75 ml of RPMI medium added, followed by 0.04-0.08 ml of 100 mM Chloroquine and finally 0.25 ml of DNA-complex solution. The transfection is then allowed to proceed by incubating the cells at 37° C. for 4 h. After this time the cells are harvested by centrifugation at 2000 rpm. The cells are then suspended in 1 ml of RPMI medium and re-centrifuged. Finally the cells are suspended in 0.5 ml RPMI medium containing 10% foetal bovine serum. Each 0.5 ml of transfected cell suspension is transferred to a well of a 12 well plastic culture plate containing 1.5 ml of RPMI 10% FBS. The original transfection tube is rinsed with a further 1 ml of medium and the wash transferred to the culture dish making a final volume of 3 ml. The culture plate is then incubated at 37° C. for 24-90 h in an atmosphere of 5% CO2. The contents of each well in the culture dish are transferred to centrifuge tubes and the cells collected by centrifugation at 13000 rpm. The pellet is resuspended in 0.12 ml of Lysis Buffer (100 mM sodium phosphate, pH 7.8; 8 mM magnesium chloride, 1 mM EDTA; 1% Triton X-100 and 15% glycerol) and agitated with a pipette. The lysate is centrifuged at 13000 rpm for 1 min and the supernatant collected. 80 μl of the supernatant are transferred to a luminometer tube. The luciferase activity is then assayed using a Berthold Lumat L9501 luminometer. The assay buffer used is Lysis Buffer containing 10 mM Luciferin and 100 mM ATP. Light produced by the luciferase is integrated over 4s and is described as relative light units (RLU). The data are converted to RLU/ml of lysate, RLU/cell or RLU/mg protein (protein concentration of the lysate having been determined in this case by the BioRAD Lowry assay.
In order to compare the relative efficiency of transfection of complexes composed of different NBC condensation peptides or poly-L-lysine, pRSVLuc DNA at a concentration of 100 μg/ml was condensed using peptide at a ratio of 2 μg/μg plasmid DNA as described herein with the following deviation: prior to addition to the cells (Jurkat cell line) the complexes were diluted to 20 μg/ml with 10% PEG 10 000; 37 mM sodium chloride; 25 mM sodium phosphate, pH 7.4. The cells were assayed for luciferase after 24 h.

[1] = tested on: plasmid nucleic acid pRSVLuc; assay: Surface plasmon resonance (BIAcore) binding kinetics of peptides/conjugates to immobilized biotinylated plasmid DNA; details: for ka: apparent rate constant for association; for Kd: read-out: equilibrium dissociation constant KD

NH2-TKKAWKKAEKKAAKKCGVSAKKAAKKAWKKA-CONH2 (H-TKKAWKKAEKKAAKKCGVSAKKAAKKAWKKA-NH2) [NBC11]
rank in order of relative transfection efficiency (most to least efficient) (Jurkat cell line): NBC11>NBC13>NBC8>>NBC15>>>polylysine
ka ([1]; SPR, PBS, 25° C.): 20700 M⁻¹ s⁻¹
Kd ([1]; approximate value, unit inferred): ~0.5 nM
apparent dissociation constant kd ([1]; approximate values): approximately 1.6×10^-4 sec^-1
association reaction ([1]; shape of association kinetics): clear biphasic kinetics

NH2-KKSPKKAKKPAAKKSPKKAKKPAYC(Acm)-COOH (H-KKSPKKAKKPAAKKSPKKAKKPAYC(Acm)-OH; SMILES CC(=O)NCSC[C@H](NC(=O)[C@H](Cc1ccc(O)cc1)NC(=O)[C@H](C)NC(=O)[C@@H]1CCCN1C(=O)[C@H](CCCCN)NC(=O)[C@H](CCCCN)NC(=O)[C@H](C)NC(=O)[C@H](CCCCN)NC(=O)[C@H](CCCCN)NC(=O)[C@@H]1CCCN1C(=O)[C@H](CO)NC(=O)[C@H](CCCCN)NC(=O)[C@H](CCCCN)NC(=O)[C@H](C)NC(=O)[C@H](C)NC(=O)[C@@H]1CCCN1C(=O)[C@H](CCCCN)NC(=O)[C@H](CCCCN)NC(=O)[C@H](C)NC(=O)[C@H](CCCCN)NC(=O)[C@H](CCCCN)NC(=O)[C@@H]1CCCN1C(=O)[C@H](CO)NC(=O)[C@H](CCCCN)NC(=O)[C@@H](N)CCCCN)C(=O)O) [NBC8]
rank in order of relative transfection efficiency (most to least efficient) (Jurkat cell line): NBC11>NBC13>NBC8>>NBC15>>>polylysine
ka ([1]; SPR, PBS, 25° C.): 50000 M⁻¹ s⁻¹
kd ([1]; apparent rate constant for dissociation, SPR, PBS, 25° C.): 0.06248 s⁻¹
apparent dissociation constant kd ([1]; approximate values): approximately 1×10^-2 sec^-1
Kd ([1]; approximate values): ~1000 nM
